Assay results taken from US9428536B2, “Immunostimulatory G, U-containing oligoribonucleotides” (Zoetis Belgium SA, priority 2002, dated 2016).
Oligonucleotides are written 5' to 3', each unit as a sugar letter and its base; * is a phosphorothioate linkage, no mark a phosphodiester; rarer units and linkages stand in square brackets, end groups in braces. Plain capitals give the bases only. d = 2'-deoxy (DNA); r = 2'-OH (RNA)

Legend:
Format in all cases: cell-based
[1] = tested on: human PBMC; experiment: Human PBMC IFN-α secretion, ELISA
Procedure: (§1) In order to investigate the possibility of using cholesteryl ester-modified RNA oligomer in place of RNA oligomer plus cationic lipid, RNA oligomer GUGUGUGU was prepared with (R 1058) and without (R 1006) a 3′ cholesteryl ester modification. These two RNA oligomers with and without DOTAP, were added over a range of concentrations to overnight cultures of human PBMC. Culture supernatants were harvested, and human TNF-α, IL-12 p40, and IFN-α were measured by ELISA using matched antibody pairs from BD-Pharmingen according to the manufacturer's protocol.
(§2) RNA oligomers GUGUGUGU, GUGUGUG, GUGUGU, GUGUG, GUGU, GUG, and GU, with and without DOTAP, were added over a range of concentrations to overnight cultures of human PBMC. Culture supernatants were harvested, and human TNF-α, IL-12 p40, and IFN-α were measured by ELISA using matched antibody pairs from BD-Pharmingen according to the manufacturer's protocol.
as §2, with “oligomers,” for “oligomers GUGUGUGU, GUGUGUG, GUGUGU, GUGUG, GUGU, GUG, and GU,”
In like manner, an all-phosphodiester 40-mer capable of forming a stem-loop structure and having a base sequence as provided by 5′-[…]-3′ (R 1041; SEQ ID NO:10) was synthesized and tested in overnight culture with human PBMC.

[2] = tested on: human PBMC; experiment: Human PBMC TNF-α secretion, ELISA; conditions: for TNF response of human PBMC: FIG. 15, 30 μM; for TNF-α response of human PBMC (in words): Example 1, FIG. 2, RNA 50 μg/ml; for TNF-α response of human PBMC (in words) / dose-response of TNF-α secretion: 16 hours; for dose-response of TNF-α secretion: Example 2, 10, 3 or 1 μg RNA with 10 μg DOTAP per 200 μl well
Procedure: (§3) Human peripheral blood mononuclear cells (PBMCs) were isolated from healthy donors, plated at 3×10^5 cells/well, stimulated in vitro with various test and control immunostimulatory agents for 16 hours, and then analyzed by enzyme-linked immunosorbent assay (ELISA) using matched antibody pairs from BD-Pharmingen for secreted cytokines IL-12 p40 and TNF-α, performed according to the manufacturer's protocol. Also included were certain negative controls, including medium alone and DOTAP (10 μg/200 μl culture well; “Liposomes”) alone. The control immunostimulatory agents included the imidazoquinolone R-848 (2 μg/ml), lipopolysaccharide (LPS; 1 μg/ml), Pam3Cys (5 μg/ml), poly IC (50 μg/ml), and CpG DNA (50 μg/ml). These are reported ligands for TLR7, TLR4, TLR2, TLR3, and TLR9, respectively. Test immunostimulatory agents included the following RNA molecules, each at 50 μg/ml, with and without DOTAP (10 μg total “with Liposomes” and “without Liposomes”, respectively): GUGUUUAC alone; GUAGGCAC alone; GUGUUUAC in combination with GUAGGCAC; GUAGGA; GAAGGCAC; CUAGGCAC; CUCGGCAC; and CCCCCCCC. These RNA oligonucleotides each contained a phosphorothioate linkage between the penultimate and 3′ terminal nucleoside.
(§4) The experiments described in the preceding example were repeated with varied concentrations of RNA oligonucleotides in order to assess the dose-response behavior of human PBMCs to G,U-containing RNA oligonucleotides of the invention. A total of 10, 3 or 1 μg RNA was added to 10 μg DOTAP and then added to the 200 μl culture wells. After 16 hours IL-12 p40 and TNF-α ELISAs were performed as described in Example 1.
as §1, §2
as §2, with “oligomers,” for “oligomers GUGUGUGU, GUGUGUG, GUGUGU, GUGUG, GUGU, GUG, and GU,”
Human PBMC were cultured overnight in the presence of added DNA:RNA conjugate, with and without DOTAP. Culture supernatants were harvested and human TNF-α, IL-6, IL-12 p40, IP-10, and IFN-α were measured by ELISA using matched antibody pairs from BD-Pharmingen according to the manufacturer's protocol.
Human PBMC were cultured overnight in the presence of various concentrations (1, 3, and 10 μg/ml) of tRNA obtained from wheat germ, bovine, yeast, and E. coli sources, added to the culture medium with and without DOTAP. Culture supernatants were harvested and human TNF-α and IL-12 p40 were measured by ELISA using matched antibody pairs from BD-Pharmingen according to the manufacturer's protocol. […] In addition, E. coli tRNA at 3 and 10 μg/ml induced minor amounts of both cytokines even without DOTAP. […]
FIG. 10 depicts the responsiveness of human PBMC to stringent response factor (SRF). SRF is produced by rapidly growing bacteria (in this case Listeria monocytogenes) in rich media until their late log phase. The bacteria were pelleted and resuspended in an equal volume of PBS for 24 h. The mixture is centrifuged to remove the bacteria. […]

[3] = tested on: human PBMC; experiment: Human PBMC IL-12 p40 secretion, ELISA; conditions: for IL-12 p40 response of human PBMC (in words): Example 1, FIG. 1, RNA 50 μg/ml with and without DOTAP, R-848 2 μg/ml, LPS 1 μg/ml, Pam3Cys 5 μg/ml, poly IC 50 μg/ml; for IL-12 p40 response of human PBMC (in words) / dose-response of IL-12 p40 secretion: 16 hours; for dose-response of IL-12 p40 secretion: Example 2, FIG. 3, 10, 3 or 1 μg RNA with 10 μg DOTAP per 200 μl well; for EC50 / IL-12 p40 max: Table 2, oligomer length, human PBMC overnight, including DOTAP
Procedure: as §3
as §4, with “1. […]” for “1.”
as §2, with “protocol. […]” for “protocol.”

[4] = Table 1, human PBMC overnight culture, with DOTAP
[5] = Table 1, human PBMC overnight culture, with DOTAP, read-out: IFN-α + DOTAP EC50
[6] = Table 2, oligomer length, human PBMC overnight, including DOTAP
[7] = Table 2, oligomer length, human PBMC overnight, including DOTAP, read-out: IFN-α EC50
[8] = Table 3, internucleoside linkages, human PBMC overnight, including DOTAP
[9] = Table 3, internucleoside linkages, human PBMC overnight, including DOTAP, read-out: IFN-α EC50
[10] = Table 1, human PBMC overnight culture, with DOTAP, read-out: TNF-α + DOTAP EC50
[11] = Table 1, human PBMC overnight culture, without DOTAP
[12] = Table 1, human PBMC overnight culture, without DOTAP, read-out: TNF-α − DOTAP EC50
[13] = Table 2, oligomer length, human PBMC overnight, including DOTAP, read-out: TNF-α EC50
[14] = Table 3, internucleoside linkages, human PBMC overnight, including DOTAP, read-out: TNF-α EC50

## 5′-CACACACUGCUUAAGCGCUUGCCUGCUUAAGUAGUGUGUG-3′ (RNA, phosphodiester; forms stem-loop structure) [R 1041, all-phosphodiester 40-mer capable of forming a stem-loop structure]
[1]; overnight culture with human PBMC
  IFN-α induction maximum: 5000 pg/mL
[1]; overnight culture with human PBMC, read-out: IFN-α induction EC50
  EC50: < 0.1 µM

## 5′-GUUGUGGUUGUGGUUGUG-3′ (chemistry not given here) [SEQ ID NO:1, G,U-rich RNA oligonucleotide]
[2]
  TNF response of human PBMC: responsive

## CCCCCCCC
[3]
  IL-12 p40 response of human PBMC (in words): did not secrete significant amounts
  dose-response of IL-12 p40 secretion: appeared not to secrete
[2]
  TNF-α response of human PBMC (in words): did not secrete significant amounts
  dose-response of TNF-α secretion: did not appear to secrete significant amounts

## CUAGGCAC
[3]
  dose-response of IL-12 p40 secretion: increasing amounts
[2]
  dose-response of TNF-α secretion: increasing amounts

## CUCGGCAC
[3]
  dose-response of IL-12 p40 secretion: increasing amounts
[2]
  dose-response of TNF-α secretion: increasing amounts

## G*U*G*U*G*U*G*U [R 1006]
[3]
  EC50: 1.6 µM
  IL-12 p40 max: 7000 pg/mL
[1]; [4]
  IFN-α + DOTAP max: 5000 pg/mL
[1]; [5]
  EC50: 4.5 µM
[1]; [6]
  IFN-α max: 5000 pg/mL
[1]; [7]
  EC50: 4.5 µM
[1]; [8]
  IFN-α max: 5000 pg/mL
[1]; [9]
  EC50: 4.5 µM
[2]; [4]
  TNF-α + DOTAP max: 40000 pg/mL
[2]; [10]
  EC50: 2.8 µM
[2]; [11]
  TNF-α − DOTAP max: 2200 pg/mL
[2]; [12]
  EC50: 7.8 µM
[2]; [6]
  TNF-α max: 40000 pg/mL
[2]; [13]
  EC50: 2.8 µM
[2]; [8]
  TNF-α max: 40000 pg/mL
[2]; [14]
  EC50: 2.8 µM

## G*U*G*U*G*U*G*U_dG_dG*dG*dG*dG*dG (rG*rU*rG*rU*rG*rU*rG*rUdGdG*dG*dG*dG*dG) [R 1060]
[2]; Table 4, DNA:RNA conjugates, human PBMC overnight, including DOTAP
  TNF-α max: 20000 pg/mL
[2]; Table 4, DNA:RNA conjugates, human PBMC overnight, including DOTAP, read-out: TNF-α EC50
  EC50: 4.9 µM

## G*U_G*U*G*U*G*U [R 1054]
[1]; [8]
  IFN-α max: 3700 pg/mL
[1]; [9]
  EC50: 6.7 µM
[2]; [8]
  TNF-α max: 40000 pg/mL
[2]; [14]
  EC50: 5.6 µM

## G*U_G*U_G*U*G*U [R 1055]
[2]; [8]
  TNF-α max: 20000 pg/mL
[2]; [14]
  EC50: > 20 µM

## G*U_G*U_G*U_G*U [R 1056]
[2]; [8]
  TNF-α max: 12000 pg/mL
[2]; [14]
  EC50: > 20 µM

## GAAGGCAC
[3]
  IL-12 p40 response of human PBMC (in words): did not secrete significant amounts
  dose-response of IL-12 p40 secretion: appeared not to secrete
[2]
  TNF-α response of human PBMC (in words): did not secrete significant amounts
  dose-response of TNF-α secretion: did not appear to secrete significant amounts

## GUAGGA
[3]
  IL-12 p40 response of human PBMC (in words): little, if any immunostimulatory effect
[2]
  TNF-α response of human PBMC (in words): did not secrete significant amounts

## GUAGGCAC
[3]
  dose-response of IL-12 p40 secretion: increasing amounts
[2]
  dose-response of TNF-α secretion: increasing amounts

## GUG [R 1052]
[3]
  EC50: > 20 µM
  IL-12 p40 max: 6000 pg/mL
[1]; [6]
  IFN-α max: 800 pg/mL
[1]; [7]
  EC50: 5.5 µM

## GUGU [R 1051]
[3]
  EC50: > 20 µM
  IL-12 p40 max: 14000 pg/mL

## GUGUG [R 1050]
[3]
  EC50: 3.9 µM
  IL-12 p40 max: 14000 pg/mL
[1]; [6]
  IFN-α max: 400 pg/mL
[1]; [7]
  EC50: 6.9 µM
[2]; [6]
  TNF-α max: 40000 pg/mL
[2]; [13]
  EC50: 7.6 µM

## GUGUGU [R 1049]
[3]
  EC50: 2.1 µM
  IL-12 p40 max: 8000 pg/mL
[1]; [6]
  IFN-α max: 3400 pg/mL
[1]; [7]
  EC50: 4.8 µM
[2]; [6]
  TNF-α max: 30000 pg/mL
[2]; [13]
  EC50: 6.7 µM

## GUGUGUG [R 1048]
[3]
  EC50: 2.6 µM
  IL-12 p40 max: 10000 pg/mL
[1]; [6]
  IFN-α max: 2700 pg/mL
[1]; [7]
  EC50: 4.6 µM
[2]; [6]
  TNF-α max: 30000 pg/mL
[2]; [13]
  EC50: 2.2 µM

## GUGUGUGU [R 1058]
[1]; [4]
  IFN-α + DOTAP max: 3800 pg/mL
[1]; [5]
  EC50: 0.5 µM
[1]; [11]
  IFN-α − DOTAP max: 1500 pg/mL
[1]; Table 1, human PBMC overnight culture, without DOTAP, read-out: IFN-α − DOTAP EC50
  EC50: 0.5 µM
[2]; [4]
  TNF-α + DOTAP max: 75000 pg/mL
[2]; [10]
  EC50: 0.2 µM
[2]; [11]
  TNF-α − DOTAP max: 3000 pg/mL
[2]; [12]
  EC50: 1 µM
[2]; both with and without DOTAP
  potency compared with R 1006 (cytokine induction in human PBMC): more potent

## GUGUUUAC
[3]
  dose-response of IL-12 p40 secretion: increasing amounts
[2]
  dose-response of TNF-α secretion: increasing amounts

## G_U_G_U_G_U_G_U [R 1057]
[1]; [8]
  IFN-α max: 6000 pg/mL
[1]; [9]
  EC50: 0.1 µM

## SEQ ID NO:19: G,U-rich DNA oligonucleotide counterpart of SEQ ID NO:1 (GUUGUGGUUGUGGUUGUG; DNA oligonucleotide, linkage chemistry not given here, further chemistry not given here) [reference compound]
[2]
  TNF response of human PBMC: not
